These are literature values, as cited in US6469171B1, “Syntheses of a variety of lamellarin compounds and analogues” (The Australian National University, priority 1998, dated 2002).

The test system of data set [1] is fertilised sea urchin. The note with it: fertilised sea urchin assay.
Data set [2] has as its system P388 cell line. The note with it: P388 cell line in culture.
Data set [3] deals with A549 cell line. The note with it: A549 cell line in culture.
The test system of data set [4] is lung cancer cell lines. The note with it: by acting as a Type IV microtubule poison.

As for `COc1cc(-c2c3n(c4c(=O)oc5cc(O)c(OC)cc5c24)CCc2c-3cc(OC)c(OC)c2OC)ccc1O` [Lamellarin C], in data set [1], the “inhibition of cell division” value is “inhibition of cell division”.

`COc1cc(-c2c3c4cc(OC)c(O)cc4oc(=O)c3n3ccc4cc(O)c(OC)cc4c23)ccc1O` [Lamellarin D]: in data set [1], the “inhibition of cell division” value is “inhibition of cell division”.

For `COc1ccc(-c2c3n(c4c(=O)oc5cc(O)c(OC)cc5c24)CCc2cc(O)c(OC)cc2-3)cc1O` [Lamellarin L], the cytotoxicity entry in data set [2] and in data set [3] was “significant cytoxicity” in each case.

In the case of `COc1ccc(-c2c3c4cc(OC)c(O)cc4oc(=O)c3n3ccc4cc(O)c(OC)cc4c23)cc1O` [Lamellarin N], the “activity in lung cancer cell lines” value in data set [4] is on record as “activity”.

For the molecule Lamellarin I, the cytotoxicity result in data set [2] and in data set [3] was “significant cytoxicity” each time.

Take Lamellarin K: the cytotoxicity result in data set [2] and in data set [3] was “significant cytoxicity” throughout.
